Activity calls are given as the source filed them. The rule behind the calls is not given here.
Experiments:
[1] = tested on: Candida albicans; assay: Antifungal activity against Candida albicans by broth microdilution assay; assay type: functional, organism-based
[2] = tested on: Staphylococcus aureus; assay: Antibacterial activity against Staphylococcus aureus; assay type: functional, organism-based
[3] = tested on: SK-OV-3; assay: Cytotoxicity against human SKOV3 cells by neutral red uptake assay; assay type: cell-based
[4] = tested on: Mycobacterium intracellulare; assay: Antibacterial activity against Mycobacterium intracellulare up to 20 ug/ml; assay type: functional, organism-based
[5] = tested on: Staphylococcus aureus; assay: Antibacterial activity against methicillin-resistant Staphylococcus aureus; assay type: functional, organism-based
[6] = tested on: Pseudomonas aeruginosa; assay: Antibacterial activity against Pseudomonas aeruginosa; assay type: functional, organism-based
[7] = tested on: Vero; assay: Cytotoxicity against African green monkey Vero cells by neutral red uptake assay; assay type: cell-based; conditions: Chlorocebus sabaeus
[8] = tested on: Plasmodium falciparum; assay: Antimalarial activity against chloroquine-resistant Plasmodium falciparum W2 by lactate dehydrogenase assay; assay type: functional, organism-based
[9] = tested on: Plasmodium berghei; assay: Antimalarial activity against Plasmodium berghei infected in mouse assessed as reduction in parasitemia at 100 mg/kg/day, po for 4 days measured up to day 14; assay type: functional
[10] = tested on: Escherichia coli; assay: Antibacterial activity against Escherichia coli; assay type: functional, organism-based
[11] = tested on: Mycobacterium intracellulare; assay: Antibacterial activity against Mycobacterium intracellulare; assay type: functional, organism-based
[12] = tested on: Cryptococcus neoformans; assay: Antifungal activity against Cryptococcus neoformans by broth microdilution assay; assay type: functional, organism-based
[13] = tested on: KB; assay: Cytotoxicity against human KB cells by neutral red uptake assay; assay type: cell-based
[14] = Selectivity index, ratio of IC50 for African green monkey Vero cells to IC50 for chloroquine-resistant Plasmodium falciparum W2; assay type: toxicity, cell-based; conditions: read-out: Ratio IC50
[15] = tested on: Aspergillus fumigatus; assay: Antifungal activity against Aspergillus fumigatus by broth microdilution assay; assay type: functional, organism-based
[16] = Inhibition of beta-hematin formation after 16 hrs; assay type: physicochemical
[17] = tested on: Nakaseomyces glabratus; assay: Antifungal activity against Candida glabrata by broth microdilution assay; assay type: functional, organism-based
[18] = tested on: BT-549; assay: Cytotoxicity against human BT549 cells by neutral red uptake assay; assay type: cell-based
[19] = tested on: SK-MEL; assay: Cytotoxicity against human SK-MEL cells by neutral red uptake assay; assay type: cell-based
[20] = tested on: Pichia kudriavzevii; assay: Antifungal activity against Candida krusei by broth microdilution assay; assay type: functional, organism-based
[21] = tested on: Staphylococcus aureus; assay: Antibacterial activity against methicillin-resistant Staphylococcus aureus up to 20 ug/ml; assay type: functional, organism-based
[22] = tested on: Plasmodium falciparum; assay: Antimalarial activity against chloroquine-sensitive Plasmodium falciparum D6 by lactate dehydrogenase assay; assay type: functional, organism-based
[23] = tested on: LLC-PK1; assay: Cytotoxicity against pig LLC-PK1 cells by neutral red uptake assay; assay type: cell-based; conditions: Sus scrofa
[24] = tested on: Leishmania donovani; assay: Antileishmanial activity against Leishmania donovani promastigotes by Alamar Blue assay; assay type: functional, organism-based
[25] = Selectivity index, ratio of IC50 for African green monkey Vero cells to IC50 for chloroquine-sensitive Plasmodium falciparum D6; assay type: toxicity, cell-based; conditions: read-out: Ratio IC50
[26] = tested on: Plasmodium berghei; assay: Antimalarial activity against Plasmodium berghei infected in mouse assessed as reduction in parasitemia at 25 mg/kg/day, po for 4 days measured up to day 60 relative to control; assay type: functional; design: scale not given: the % may be the effect or the level left
[27] = tested on: Plasmodium berghei; assay: Antimalarial activity against Plasmodium berghei infected in mouse assessed as reduction in parasitemia at 100 mg/kg/day, po for 4 days measured up to day 60 relative to control; assay type: functional; design: scale not given: the % may be the effect or the level left
[28] = tested on: Plasmodium berghei; assay: Antimalarial activity against Plasmodium berghei infected in mouse assessed as reduction in parasitemia at 50 mg/kg/day, po for 4 days measured up to day 60 relative to control; assay type: functional; design: scale not given: the % may be the effect or the level left
[29] = tested on: Plasmodium berghei; assay: Antimalarial activity against Plasmodium berghei infected in mouse assessed as reduction in parasitemia at 10 mg/kg/day, po for 4 days measured up to day 7; assay type: functional, organism-based
[30] = tested on: Cryptococcus neoformans; assay: Antifungal activity against Cryptococcus neoformans up to 20 ug/ml by broth microdilution assay; assay type: functional, organism-based
[31] = Plasmodium falciparum, W2, read-out: IC50
[32] = Plasmodium falciparum, D6, read-out: IC50

| SMILES | Activity [1] | IC50 [3] [µg/mL] | Activity [6] | IC50 [7] [µg/mL] | IC50 [8, 31] [µg/mL] | Activity [9] | Activity [10] | IC50 [13] [µg/mL] | selectivity ratio [14] | Activity [15] | IC50 [16] [µM] | Activity [17] | IC50 [18] [µg/mL] | IC50 [19] [µg/mL] | Activity [20] | IC50 [22, 32] [µg/mL] | IC50 [23] [µg/mL] | IC50 [24] [µg/mL] | IC90 [24] | selectivity ratio [25] | further results |
| --- | --- | --- | --- | --- | --- | --- | --- | --- | --- | --- | --- | --- | --- | --- | --- | --- | --- | --- | --- | --- | --- |
| CCCCOc1c(OC)cc(NC(C)CCCNC(C)CCCNC(C)CCCNC(C)CCCN)c2nccc(CC)c12.Cl (configuration not stated) | inactive | > 23.8 | inactive | > 23.8 | 0.35 | inactive | inactive | > 23.8 | > 68 | inactive | 10.7 | inactive | > 23.8 | > 23.8 | inactive | 0.49 | > 23.8 | 3.2 | 7 µg/mL | > 48.5 | IC50 [2]: 13.6 µg/mL; MBC [2]: 20 µg/mL; MIC [2]: 20 µg/mL; Activity [4]: inactive; IC50 [5]: 13.2 µg/mL; MIC [5]: 20 µg/mL; IC50 [11]: 15 µg/mL; IC50 [12]: 8 µg/mL; MFC [12]: 20 µg/mL; MIC [12]: 20 µg/mL; Activity [21]: inactive |
| COc1cc(NC(C)CCCNC(C)CCCNC(C)CCCNC(C)CCCN)c2nc(C(C)(C)C)ccc2c1.Cl (configuration not stated) | inactive | > 23.8 | inactive | > 23.8 | 0.56 | 100% | inactive | > 23.8 | > 42.5 | inactive | 10.2 | inactive | > 23.8 | > 23.8 | inactive | 0.7 | > 23.8 | 1.6 | 7.3 µg/mL | > 34 | Activity [26]: 100%; IC50 [5]: 10 µg/mL; MBC [5]: 20 µg/mL; MIC [5]: 20 µg/mL; Activity [27]: 100%; Activity [28]: 100%; IC50 [11]: 15 µg/mL; MBC [11]: 20 µg/mL; MIC [11]: 20 µg/mL; IC50 [12]: 10 µg/mL; MFC [12]: 20 µg/mL; MIC [12]: 20 µg/mL; Activity [29]: Active |
| COc1cc(NC(C)CCCNC(C)CCCNC(C)CCCNC(C)CCCN)c2ncccc2c1.Cl (configuration not stated) | inactive | > 23.8 | inactive | > 23.8 | 1.3 | 100% | inactive | > 23.8 | > 18.3 | inactive | 75 | inactive | > 23.8 | > 23.8 | inactive | 2.3 | > 23.8 | 5 | 40 µg/mL | > 10.3 | Activity [26]: 100%; Activity [4]: inactive; Activity [27]: 100%; Activity [28]: 100%; Activity [29]: Active; Activity [21]: inactive; Activity [30]: inactive |
| COc1cc(NC(C)CCCNC(C)CCCNC(C)CCCN)c2nc(C(C)(C)C)ccc2c1.Cl (configuration not stated) | inactive | > 23.8 | inactive | > 23.8 | – | 100% | inactive | > 23.8 | – | inactive | > 1000 | inactive | > 23.8 | > 23.8 | inactive | – | > 23.8 | 1.6 | 4 µg/mL | – | Activity [26]: 100%; Activity [27]: 100%; Activity [28]: 100%; IC50 [8]: Not Active; IC50 [11]: 9 µg/mL; MBC [11]: 20 µg/mL; MIC [11]: 20 µg/mL; IC50 [12]: 7.5 µg/mL; MFC [12]: 20 µg/mL; MIC [12]: 20 µg/mL; Activity [29]: Active; Activity [21]: inactive; IC50 [22]: Not Active |
| COc1cc(NC(C)CCCNC(C)CCCN)c2ncccc2c1.Cl (configuration not stated) | inactive | > 23.8 | inactive | > 23.8 | 0.8 | 100% | inactive | > 23.8 | > 29.7 | inactive | 18.5 | inactive | > 23.8 | > 23.8 | inactive | 0.57 | > 23.8 | 32 | inactive | > 41.7 | Activity [26]: 100%; Activity [4]: inactive; Activity [27]: 100%; Activity [28]: 100%; IC50 [11]: 10 µg/mL; Activity [29]: Active; Activity [21]: inactive; Activity [30]: inactive |
| COc1cc(NC(C)CCCNC(C)CCCNC(C)CCCN)c2ncccc2c1.Cl (configuration not stated) | inactive | > 23.8 | inactive | > 23.8 | 1.5 | 100% | inactive | > 23.8 | > 15.8 | inactive | 75 | inactive | > 23.8 | > 23.8 | inactive | 2.6 | > 23.8 | 4.2 | 40 µg/mL | > 9.1 | Activity [26]: 100%; Activity [4]: inactive; Activity [27]: 100%; Activity [28]: 100%; Activity [29]: Active; Activity [21]: inactive; Activity [30]: inactive |
| CCCCOc1c(OC)cc(NC(C)CCCNC(C)CCCN)c2nccc(CC)c12.Cl (configuration not stated) | inactive | > 23.8 | inactive | > 23.8 | 0.37 | inactive | inactive | > 23.8 | > 64.2 | inactive | 10.2 | inactive | > 23.8 | > 23.8 | inactive | 0.6 | > 23.8 | 3.5 | 7 µg/mL | > 39.6 | IC50 [2]: 13.7 µg/mL; MBC [2]: 20 µg/mL; MIC [2]: 20 µg/mL; Activity [4]: inactive; IC50 [5]: 12.5 µg/mL; MBC [5]: 20 µg/mL; MIC [5]: 20 µg/mL; IC50 [11]: > 20 µg/mL; IC50 [12]: 7.9 µg/mL; MIC [12]: 20 µg/mL; Activity [30]: inactive |
| CCCCOc1c(OC)cc(NC(C)CCCNC(C)CCCNC(C)CCCN)c2nccc(CC)c12.Cl (configuration not stated) | inactive | > 23.8 | inactive | > 23.8 | 0.58 | inactive | inactive | > 23.8 | > 41 | inactive | 19.7 | inactive | > 23.8 | > 23.8 | inactive | 0.54 | > 23.8 | 14 | 32 µg/mL | > 44 | IC50 [2]: 12 µg/mL; MBC [2]: 20 µg/mL; MIC [2]: 20 µg/mL; Activity [4]: inactive; IC50 [5]: > 20 µg/mL; IC50 [11]: > 20 µg/mL; IC50 [12]: 12.1 µg/mL; MFC [12]: 20 µg/mL; MIC [12]: 20 µg/mL; Activity [21]: inactive |
| COc1cc(NC(C)CCCNC(C)CCCN)c2nc(C(C)(C)C)ccc2c1.Cl (configuration not stated) | inactive | > 23.8 | inactive | > 23.8 | 0.12 | 100% | inactive | > 23.8 | > 198 | inactive | 7.5 | inactive | > 23.8 | > 23.8 | inactive | 0.19 | > 23.8 | 2.8 | 7.2 µg/mL | > 125 | Activity [26]: 100%; Activity [4]: inactive; IC50 [5]: 6.5 µg/mL; MBC [5]: 20 µg/mL; MIC [5]: 10 µg/mL; Activity [27]: 100%; Activity [28]: 100%; IC50 [12]: 10 µg/mL; MFC [12]: 20 µg/mL; MIC [12]: 20 µg/mL; Activity [29]: Active |

— ChEMBL document CHEMBL3217667, “Extended side chain analogues of 8-aminoquinolines: Synthesis and evaluation of antiprotozoal, antimicrobial, -hematin inhibition, and cytotoxic activities” (Medchemcomm, 2011)
